Here are results for 30 compounds from ChEMBL document CHEMBL3046383, “Enantioselective Herbicidal Activity of Chiral α-Methylbenzylphenylureas against Cyperaceae and Echinochloa Paddy Weeds” (Biosci Biotechnol Biochem, 1998).

Data set [1] concerns Echinochloa oryzicola. Nature of the data set: Herbicidal activity against Echinochloa oryzicola assessed as phytotoxic activity ratings (0- no effect to 5-complete killing rating scale) at 100 g/a measured after 3 weeks post compound treatment under green house conditions. Type of data set: functional.
Data set [2] relates to Cyperus serotinus. In words: Herbicidal activity against Cyperus serotinus assessed as phytotoxic activity ratings (0- no effect to 5-complete killing rating scale) at 3.1 to 100 g/a measured after 3 weeks post compound treatment under green house conditions. It is filed as functional.
Data set [3] has as its system Oryza sativa. Nature of the data set: Phytotoxicity against directly seeded Oryza sativa (rice) seedlings assessed as phytotoxic activity ratings (0- no effect to 5-complete killing rating scale) at 100 g/a measured after 3 weeks post compound treatment under green house conditions. Particulars: in vivo, 504 h. It is filed as organism-based.
The subject of data set [4] is Cyperus difformis. Nature of the data set: Herbicidal activity against Cyperus difformis assessed as phytotoxic activity ratings (0- no effect to 5-complete killing rating scale) at 100 g/a measured after 3 weeks post compound treatment under green house conditions. Type of data set: functional.
In data set [5] the test system is Schoenoplectiella juncoides. Nature of the data set: Herbicidal activity against Schoenoplectiella juncoides var. Hotarui Ohwi assessed as phytotoxic activity ratings (0- no effect to 5-complete killing rating scale) at 100 g/a measured after 3 weeks post compound treatment under green house conditions. Type of data set: functional.
In data set [6] the test system is Oryza sativa. Nature of the data set: Phytotoxicity against transplanted Oryza sativa (rice) seedlings assessed as phytotoxic activity ratings (0- no effect to 5-complete killing rating scale) at 100 g/a measured after 3 weeks post compound treatment under green house conditions. It is filed as organism-based. The settings on record: in vivo, 504 h.

Structures are written as SMILES. The source made the active and inactive calls. No rule for the calls is given here.

In the case of `CC(=O)c1cccc(NC(=O)N[C@H](C)c2ccccc2)c1`, the Activity in data set [1], in data set [3], in data set [4], in data set [5] and in data set [6] was 0% throughout. In addition, the result in data set [2] was inactive.
Turning to `C[C@H](NC(=O)Nc1ccccc1Br)c1ccccc1`, the Activity in data set [1] is listed as 0%; in data set [3] it was 0%; in data set [4], 10%; in data set [5], 0%; in data set [6] it was 0%. Besides, the outcome in data set [2] was inactive.
On to `CCOC(=O)c1ccc(NC(=O)N[C@H](C)c2ccccc2)cc1`, for which the Activity in data set [1], in data set [3], in data set [4], in data set [5] and in data set [6] was 0% throughout. For the same compound, in data set [2], the result was inactive.
Turning to `CCCCc1ccc(NC(=O)N[C@H](C)c2ccccc2)cc1`, the Activity was determined as 10% in data set [1]; 10% in data set [3]; 0% in data set [4]; 0% in data set [5]; 0% in data set [6]. Further, the outcome in data set [2] was inactive.
Consider `CC(=O)c1ccc(NC(=O)N[C@H](C)c2ccccc2)cc1`, for which the Activity is listed as 40% in data set [1]; 0% in data set [3]; 0% in data set [4]; 0% in data set [5]; 0% in data set [6]. Moreover, in data set [2], the outcome was inactive.
As for `C[C@H](NC(=O)Nc1cccc(I)c1)c1ccccc1`, the Activity worked out at 0% in data set [1]; 0% in data set [3]; 10% in data set [4]; 0% in data set [5]; 0% in data set [6]. Further, the outcome in data set [2] was inactive.
As to `CCCCCCCc1ccc(NC(=O)N[C@H](C)c2ccccc2)cc1`, the Activity in data set [1], in data set [3], in data set [4], in data set [5] and in data set [6] was 0% in each case. For the same compound, in data set [2], the outcome was inactive.
Turning to `C[C@@H](NC(=O)Nc1cc(C(C)(C)C)ccc1C(C)(C)C)c1ccccc1`, the Activity in data set [1], in data set [3], in data set [4], in data set [5] and in data set [6] was 0% each time. In addition, the outcome in data set [2] was inactive.
Regarding `C[C@@H](NC(=O)Nc1ccccc1Cl)c1ccccc1`, the Activity in data set [1] stood at 0%; in data set [3], 0%; in data set [4] it was 10%; in data set [5], 0%; in data set [6], 0%. Besides, the outcome in data set [2] was inactive.
Turning to `C[C@H](NC(=O)Nc1cccc(Cl)c1)c1ccccc1`, the Activity in data set [1] was 0%; in data set [3], 0%; in data set [4] it was 10%; in data set [5], 0%; in data set [6] it was 0%. The outcome in data set [2] was inactive.
For `Cc1ccc(NC(=O)N[C@@H](C)c2ccccc2)c(F)c1`, the Activity in data set [1], in data set [3], in data set [4], in data set [5] and in data set [6] was 0% each time. In addition, in data set [2], the outcome was inactive.
Turning to `C[C@H](NC(=O)Nc1cc(C(F)(F)F)ccc1F)c1ccccc1`, the Activity in data set [1], in data set [3], in data set [4], in data set [5] and in data set [6] was 0% throughout. In data set [2], the outcome was inactive.
Regarding `CCOC(=O)c1ccccc1NC(=O)N[C@@H](C)c1ccccc1`, the Activity is listed as 10% in data set [1]; 0% in data set [3]; 0% in data set [4]; 0% in data set [5]; 0% in data set [6]. The outcome in data set [2] was inactive.
Turning to `COc1ccccc1NC(=O)N[C@@H](C)c1ccccc1`, the Activity in data set [1], in data set [3], in data set [4], in data set [5] and in data set [6] was 0% each time. In data set [2], the result was inactive.
As for `CC(C)c1ccc(NC(=O)N[C@H](C)c2ccccc2)cc1`, the Activity in data set [1], in data set [3], in data set [4], in data set [5] and in data set [6] was 0% each time. The result in data set [2] was inactive.
For the compound `CCCCCCc1ccc(NC(=O)N[C@@H](C)c2ccccc2)cc1`, the Activity in data set [1], in data set [3], in data set [4], in data set [5] and in data set [6] was 0% throughout. Besides, in data set [2], the result was inactive.
On to `CC(=O)c1ccc(NC(=O)N[C@@H](C)c2ccccc2)cc1`, for which the Activity in data set [1], in data set [3], in data set [4], in data set [5] and in data set [6] was 0% throughout. Besides, in data set [2], the outcome was inactive.
Turning to `C[C@H](NC(=O)Nc1ccc(I)cc1)c1ccccc1`, the Activity in data set [1], in data set [3], in data set [4], in data set [5] and in data set [6] was 0% each time. The outcome in data set [2] was inactive.
As to `C[C@@H](NC(=O)Nc1ccc(F)cc1)c1ccccc1`, the Activity in data set [1], in data set [3], in data set [4], in data set [5] and in data set [6] was 0% throughout. Also, the outcome in data set [2] was inactive.
Turning to `C[C@@H](NC(=O)Nc1ccc(C(F)(F)F)cc1)c1ccccc1`, the Activity in data set [1], in data set [3], in data set [4], in data set [5] and in data set [6] was 0% each time. Moreover, in data set [2], the outcome was inactive.
For the compound `C[C@H](NC(=O)Nc1cccc(Cl)c1Cl)c1ccccc1`, the Activity in data set [1], in data set [3], in data set [4], in data set [5] and in data set [6] was 0% in each case. Moreover, the outcome in data set [2] was inactive.
As for `C[C@@H](NC(=O)Nc1ccc(F)c(F)c1)c1ccccc1`, the Activity in data set [1], in data set [3], in data set [4], in data set [5] and in data set [6] was 0% throughout. Besides, the outcome in data set [2] was inactive.
In the case of `CC(=O)c1ccccc1NC(=O)N[C@@H](C)c1ccccc1`, the Activity in data set [1], in data set [3], in data set [4], in data set [5] and in data set [6] was 0% each time. Moreover, the outcome in data set [2] was inactive.
Take `CCCCCCCc1ccc(NC(=O)N[C@@H](C)c2ccccc2)cc1`: the Activity in data set [1], in data set [3], in data set [4], in data set [5] and in data set [6] was 0% each time. Also, in data set [2], the result was inactive.
Turning to `C[C@@H](NC(=O)Nc1cc(C(F)(F)F)ccc1F)c1ccccc1`, the Activity in data set [1] was 80%; in data set [3] it was 10%; in data set [4] it was 0%; in data set [5], 0%; in data set [6] it was 0%. In data set [2], the result was inactive.
As to `C[C@@H](NC(=O)Nc1cc(C(F)(F)F)cc(C(F)(F)F)c1)c1ccccc1`, the Activity in data set [1], in data set [3], in data set [4], in data set [5] and in data set [6] was 0% in each case. Further, the outcome in data set [2] was inactive.
With `CCc1cccc(CC)c1NC(=O)N[C@H](C)c1ccccc1`, the Activity in data set [1], in data set [3], in data set [4], in data set [5] and in data set [6] was 0% in each case. Besides, the outcome in data set [2] was inactive.
As to `C[C@@H](NC(=O)Nc1cccc(Cl)c1)c1ccccc1`, the Activity in data set [1] is reported as 0%; in data set [3], 0%; in data set [4] it was 10%; in data set [5] it was 0%; in data set [6], 0%. The result in data set [2] was inactive.
For the compound `Cc1ccc(NC(=O)N[C@H](C)c2ccccc2)c(F)c1`, the Activity in data set [1], in data set [3], in data set [4], in data set [5] and in data set [6] was 0% in each case. In data set [2], the outcome was inactive.
With `COc1ccc(NC(=O)N[C@H](C)c2ccccc2)cc1`, the Activity in data set [1], in data set [3], in data set [4], in data set [5] and in data set [6] was 0% in each case. Also, the result in data set [2] was inactive.
